From patent publication US20260083692A1 (Strongbridge Dublin Limited, priority 2018, published 2026)
Read-outs that look alike come from different tables or passages of the source. Each block holds one compound with its values, some of them ahead of it.

What was measured:
human OAT1 [1] = target: T1, human OAT1 (Homo sapiens, UniProt Q4U2R8); experiment: cell-based
T1 sequence (Q4U2R8 1-563): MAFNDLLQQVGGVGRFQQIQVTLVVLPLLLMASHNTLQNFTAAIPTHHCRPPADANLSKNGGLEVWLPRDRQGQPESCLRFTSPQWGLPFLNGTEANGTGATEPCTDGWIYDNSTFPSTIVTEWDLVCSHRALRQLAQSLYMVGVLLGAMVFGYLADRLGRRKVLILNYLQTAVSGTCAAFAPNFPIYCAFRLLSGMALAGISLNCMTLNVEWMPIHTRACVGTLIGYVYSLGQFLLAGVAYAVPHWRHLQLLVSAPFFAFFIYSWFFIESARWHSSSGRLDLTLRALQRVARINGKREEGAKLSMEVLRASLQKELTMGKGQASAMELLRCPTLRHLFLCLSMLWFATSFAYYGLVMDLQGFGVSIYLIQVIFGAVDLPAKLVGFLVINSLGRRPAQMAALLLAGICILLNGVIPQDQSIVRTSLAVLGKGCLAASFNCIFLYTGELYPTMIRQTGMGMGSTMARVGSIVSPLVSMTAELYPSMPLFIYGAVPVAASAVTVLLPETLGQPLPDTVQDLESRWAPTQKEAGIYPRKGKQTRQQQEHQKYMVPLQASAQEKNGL

human OAT1 [2] = target: T1, human OAT1; conditions: for Uptake (Average ± SD), OAT1: OAT1-expressing HEK293 cells; for Uptake (Average ± SD), Control: control HEK293 cells (vector only); for % control: relative to solvent control

Compound: NS(=O)(=O)c1cc(Cl)c(Cl)c(S(N)(=O)=O)c1 [Dichlorphenamide, 4,5-dichloro-1,3-benzenedisulfonamide]
- IC50 (human OAT1 [1]): 17.7 µM
- Uptake (Average ± SD), OAT1 (human OAT1 [2]; inhibitor 1 μM): 6.99 pmol/mg protein
- Uptake (Average ± SD), OAT1 (human OAT1 [2]; inhibitor 3 μM): 5.99 ± 1.16 pmol/mg protein
- Uptake (Average ± SD), OAT1 (human OAT1 [2]; inhibitor 10 μM): 3.70 ± 0.44 pmol/mg protein
- Uptake (Average ± SD), OAT1 (human OAT1 [2]; inhibitor 30 μM): 3.25 ± 0.39 pmol/mg protein
- Uptake (Average ± SD), OAT1 (human OAT1 [2]; inhibitor 100 μM): 1.79 ± 0.25 pmol/mg protein
- Uptake (Average ± SD), OAT1 (human OAT1 [2]; inhibitor 300 μM): 1.47 ± 0.12 pmol/mg protein
- Uptake (Average ± SD), OAT1 (human OAT1 [2]; inhibitor 1000 μM): 0.669 ± 0.099 pmol/mg protein
- Uptake (Average ± SD), Control (human OAT1 [2]; inhibitor 1 μM): 0.0857 pmol/mg protein
- Uptake (Average ± SD), Control (human OAT1 [2]; inhibitor 3 μM): 0.107 ± 0.040 pmol/mg protein
- Uptake (Average ± SD), Control (human OAT1 [2]; inhibitor 10 μM): 0.0571 ± 0.0257 pmol/mg protein
- Uptake (Average ± SD), Control (human OAT1 [2]; inhibitor 30 μM): 0.612 ± 0.907 pmol/mg protein
- Uptake (Average ± SD), Control (human OAT1 [2]; inhibitor 100 μM): 0.150 ± 0.026 pmol/mg protein
- Uptake (Average ± SD), Control (human OAT1 [2]; inhibitor 300 μM): 0.0452 ± 0.0082 pmol/mg protein
- Uptake (Average ± SD), Control (human OAT1 [2]; inhibitor 1000 μM): 0.119 ± 0.022 pmol/mg protein
- IC50 parameters: Max (human OAT1 [2]; fit of OAT1 inhibition curve): Max: 115%
- IC50 parameters: Min (human OAT1 [2]; fit of OAT1 inhibition curve): Min: 0%
- Background corrected uptake rate (human OAT1 [2]; inhibitor 1 μM): 6.90 pmol/mg/min
- % control (human OAT1 [2]; inhibitor 1 μM): 112%
- Background corrected uptake rate (human OAT1 [2]; inhibitor 3 μM): 5.88 pmol/mg/min
- % control (human OAT1 [2]; inhibitor 3 μM): 95.6%
- Background corrected uptake rate (human OAT1 [2]; inhibitor 10 μM): 3.64 pmol/mg/min
- % control (human OAT1 [2]; inhibitor 10 μM): 59.2%
- Background corrected uptake rate (human OAT1 [2]; inhibitor 30 μM): 2.64 pmol/mg/min
- % control (human OAT1 [2]; inhibitor 30 μM): 42.9%
- Background corrected uptake rate (human OAT1 [2]; inhibitor 100 μM): 1.64 pmol/mg/min
- % control (human OAT1 [2]; inhibitor 100 μM): 26.7%
- Background corrected uptake rate (human OAT1 [2]; inhibitor 300 μM): 1.42 pmol/mg/min
- % control (human OAT1 [2]; inhibitor 300 μM): 23.1%
- Background corrected uptake rate (human OAT1 [2]; inhibitor 1000 μM): 0.550 pmol/mg/min
- % control (human OAT1 [2]; inhibitor 1000 μM): 8.9%

- Uptake (Average ± SD), OAT1 (human OAT1 [2]; inhibitor 300 μM): 0.425 ± 0.071 pmol/mg protein
- Uptake (Average ± SD), Control (human OAT1 [2]; inhibitor 300 μM): 0.231 ± 0.048 pmol/mg protein
- Background corrected uptake rate (human OAT1 [2]; inhibitor 300 μM): 0.194 pmol/mg/min
- % control (human OAT1 [2]; inhibitor 300 μM): 3.2%
Compound: CO[C@@H]1[C@@H](OC(N)=O)[C@@H](O)[C@H](Oc2ccc3c(O)c(NC(=O)c4ccc(O)c(CC=C(C)C)c4)c(=O)oc3c2C)OC1(C)C [Novobiocin]
